Test results published in patent US10624897B2, “Chlorobenzene substituted azaaryl compounds” (TAIPEI MEDICAL UNIVERSITY, priority 2015, dated 2020).
“And” between values parts separate entries of the source, which are not always exact repeats. Identical values can stand only once.

Experiments:
FGFR signaling = test: Western blot of FGFR signaling in RT-112 cells; assay type: cell-based
Text: BGJ-398, a known selective inhibitor of FGFR1 to FGFR3, was included as a reference compound. […] The major downstream pathways of FGFRs are MAPK, PI3K/AKT, and PLC-γ. RT-112 cells, which express FGFR3-TACC3, are reportedly unable to activate PLCγ due to a deletion of the last exon of FGFR3.

FGFR3 = biological target: T1, FGFR3 (Homo sapiens, UniProt P22607); test: Kinase binding assay (Kd); settings: FGFR3 (wild-type)
T1 construct: made in house; host or cells: E. coli BL21-derived host (T7 phage) or HEK-293
Procedure: (§1) Kinase assays. For most assays, kinase-tagged T7 phage strains were prepared in an E. coli host derived from the BL21 strain. E. coli were grown to log-phase and infected with T7 phage and incubated with shaking at 32° C. until lysis. The lysates were centrifuged and filtered to remove cell debris. The remaining kinases were produced in HEK-293 cells and subsequently tagged with DNA for qPCR detection. […] The liganded beads were blocked with excess biotin and washed with blocking buffer (SeaBlock (Pierce), 1% BSA, 0.05% Tween 20, 1 mM DTT) to remove unbound ligand and to reduce non-specific binding. […] All reactions were performed in polystyrene 96-well plates in a final volume of 0.135 ml. […] The kinase concentration in the eluates was measured by qPCR.
(§2) An 11-point 3-fold serial dilution of each test compound was prepared in 100% DMSO at 100× final test concentration and subsequently diluted to 1× in the assay (final DMSO concentration=1%). Most Kds were determined using a compound top concentration=30,000 nM.
(§3) Binding constants (Kds) were calculated with a standard dose-response curve using the Hill equation: […]
(§4) The Hill Slope was set to −1. Curves were fitted using a non-linear least square fit with the Levenberg-Marquardt algorithm.
(§5) The compound and assay method are similar to those mentioned in Example 45.

FGFR3(G697C) = biological target: T2, FGFR3(G697C) (Homo sapiens, UniProt P22607, G697C); test: Kinase binding assay (Kd), mutant FGFR3
T2 construct: made in house; host or cells: E. coli BL21-derived host (T7 phage) or HEK-293
Procedure: as §1, §2, §3, §4, §5

T1 sequence (P22607 23-806): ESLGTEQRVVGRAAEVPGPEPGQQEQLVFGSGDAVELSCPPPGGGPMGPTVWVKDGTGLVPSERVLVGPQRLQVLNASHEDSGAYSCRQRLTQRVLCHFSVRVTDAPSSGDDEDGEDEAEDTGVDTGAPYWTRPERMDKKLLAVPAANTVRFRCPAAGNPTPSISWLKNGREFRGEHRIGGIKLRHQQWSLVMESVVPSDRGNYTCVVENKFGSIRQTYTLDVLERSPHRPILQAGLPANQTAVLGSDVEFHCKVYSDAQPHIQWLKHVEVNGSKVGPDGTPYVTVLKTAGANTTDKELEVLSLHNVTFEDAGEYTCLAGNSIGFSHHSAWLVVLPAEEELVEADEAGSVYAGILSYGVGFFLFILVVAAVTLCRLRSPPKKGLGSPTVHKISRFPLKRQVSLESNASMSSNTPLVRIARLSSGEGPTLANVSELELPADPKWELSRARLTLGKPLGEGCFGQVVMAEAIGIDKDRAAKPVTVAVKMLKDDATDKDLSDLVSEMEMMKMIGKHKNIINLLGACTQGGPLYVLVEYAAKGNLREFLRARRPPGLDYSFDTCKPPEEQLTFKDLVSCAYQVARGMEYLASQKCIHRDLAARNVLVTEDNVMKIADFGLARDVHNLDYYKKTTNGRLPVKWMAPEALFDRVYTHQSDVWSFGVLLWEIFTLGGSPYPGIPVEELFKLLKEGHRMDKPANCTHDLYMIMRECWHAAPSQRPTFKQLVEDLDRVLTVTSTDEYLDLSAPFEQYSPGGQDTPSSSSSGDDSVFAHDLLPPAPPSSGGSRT
T2 sequence (P22607 23-806 G697C): as the sequence (P22607 23-806) above, with G675C counted along it

Kd (FGFR3): 270 nM and 390 nM | Kd (FGFR3(G697C)): 390 nM
SMILES: CCN1CCN(c2ccc(Nc3ncnc(N(C)C(=O)Nc4c(Cl)c(OC)c(Cl)c(OC)c4Cl)n3)cc2)CC1 [MPT0L145, 1-(4-((4-(4-ethylpiperazin-1-yl)phenyl)amino)-1,3,5-triazin-2-yl)-1-methyl-3-(2,4,6-trichloro-3,5-dimethoxyphenyl)urea]
inhibiting AKT phosphorylation (FGFR signaling; 1 to 4 h, FIG. 2B, 2C): better potency than BGJ-398 | auto-phosphorylation of FGFR1 and FGFR3 and docking protein FRS2 (FGFR signaling; 1 h, FIG. 2A): exerted inhibitory activity | phosphorylation of ERK (FGFR signaling; 1 h, concentration-dependent, FIG. 2B): inhibited | phosphorylation of ERK and AKT (FGFR signaling; 8 h, FIG. 2D): fully repressed
